# PMC6095594, “Pre-clinical evaluation of quinoxaline-derived chalcones in tuberculosis” (PLoS ONE, 2018)
# Key:
# [1] = test system: mycolic acids synthesis in M. tuberculosis cells; format: cell-based; details: N9 at 10 and 25 μg/mL, 18 hours
# [2] = test system: S. typhimurium TA100; assay: Salmonella/microsome mutagenicity test
# Procedure: Salmonella typhimurium strains TA98, TA97a, TA100, TA1535, and TA102 were provided by MOLTOX® (Molecular Toxicology Inc. USA). Mutagenicity was assayed according to the pre-incubation procedure following the recommendation described in Mortelmans and Zieger (2000). […] Briefly, 100 μL of test bacterial cultures (1–2 x 10^9 cells/mL) were incubated at 37 °C with different concentrations of N9 (10–400 μg/plate) in the presence or absence of S9 mix, for 20 min, without shaking. […] Plates were incubated in the dark at 37 °C for 48 h before counting the revertant colonies. Assays were repeated twice and the plating for each concentration was conducted in triplicate. Data were evaluated by one-way analysis of variance (ANOVA), followed by Dunnett's post-test, using GraphPad Prism 5.0 (GraphPad, San Diego, CA, USA).
# [3] = target: CYP2D6 (Homo sapiens, UniProt P10635); details: human liver microsomes, CYP2D6, N9 0.01–100 μmol L^-1
# [4] = target: CYP2E1 (Homo sapiens, UniProt P05181); details: human liver microsomes, CYP2E1, N9 0.01–100 μmol L^-1
# [5] = test system: CYP3A4/5; assay: in vitro; details: human, microsomes, pH 7.4
# Sequence of CYP2D6 (P10635 whole entry): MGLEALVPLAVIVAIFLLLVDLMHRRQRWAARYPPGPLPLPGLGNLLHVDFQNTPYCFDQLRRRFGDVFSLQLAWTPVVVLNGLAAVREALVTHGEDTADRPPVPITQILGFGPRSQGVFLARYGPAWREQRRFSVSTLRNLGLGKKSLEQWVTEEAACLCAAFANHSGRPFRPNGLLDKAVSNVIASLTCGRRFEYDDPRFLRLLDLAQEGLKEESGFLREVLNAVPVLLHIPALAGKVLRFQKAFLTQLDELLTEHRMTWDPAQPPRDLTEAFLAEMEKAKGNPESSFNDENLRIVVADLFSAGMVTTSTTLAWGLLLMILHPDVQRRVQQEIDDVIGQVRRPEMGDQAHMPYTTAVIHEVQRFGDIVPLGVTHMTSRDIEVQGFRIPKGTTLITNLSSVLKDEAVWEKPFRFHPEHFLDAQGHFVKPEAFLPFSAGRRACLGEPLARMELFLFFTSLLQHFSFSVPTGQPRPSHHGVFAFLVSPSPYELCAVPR
# Sequence of CYP2E1 (P05181 whole entry): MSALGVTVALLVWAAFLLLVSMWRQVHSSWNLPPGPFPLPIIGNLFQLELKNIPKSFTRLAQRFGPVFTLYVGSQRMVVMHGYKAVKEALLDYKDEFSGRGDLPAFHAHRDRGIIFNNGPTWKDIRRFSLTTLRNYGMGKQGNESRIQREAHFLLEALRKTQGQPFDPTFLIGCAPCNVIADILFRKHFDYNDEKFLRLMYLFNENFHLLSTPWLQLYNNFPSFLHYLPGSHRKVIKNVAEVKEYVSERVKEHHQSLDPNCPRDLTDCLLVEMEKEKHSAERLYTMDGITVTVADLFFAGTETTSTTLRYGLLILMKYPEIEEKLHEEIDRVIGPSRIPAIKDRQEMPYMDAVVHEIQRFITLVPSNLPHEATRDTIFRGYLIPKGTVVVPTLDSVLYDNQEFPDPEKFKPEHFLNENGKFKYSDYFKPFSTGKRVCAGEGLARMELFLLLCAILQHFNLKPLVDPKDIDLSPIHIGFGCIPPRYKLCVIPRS
compound,measurement,setting,value
COc1ccc(OC)c(C(=O)/C=C/c2ccc3nccnc3c2)c1 [N9],Effect on synthesis of mycolic acids and non-hydroxylated fatty acids,[1],did not inhibit
same,MI: mutagenic index,"[2]; TA100, +S9, 10 μg/plate",0.94
same,Number of revertants/plate,"[2]; TA100, +S9, 10 μg/plate",108.7±15.2 Rev/plate
same,MI: mutagenic index,"[2]; TA100, +S9, 50 μg/plate",1.13
same,Number of revertants/plate,"[2]; TA100, +S9, 50 μg/plate",130.7±10.7 Rev/plate
same,MI: mutagenic index,"[2]; TA100, +S9, 100 μg/plate",0.97
same,Number of revertants/plate,"[2]; TA100, +S9, 100 μg/plate",112.7±15.5 Rev/plate
same,MI: mutagenic index,"[2]; TA100, +S9, 200 μg/plate",0.95
same,Number of revertants/plate,"[2]; TA100, +S9, 200 μg/plate",110.0±11.8 Rev/plate
same,MI: mutagenic index,"[2]; TA100, +S9, 400 μg/plate",0.97
same,Number of revertants/plate,"[2]; TA100, +S9, 400 μg/plate",112.0±13.9 Rev/plate
same,MI: mutagenic index,"[2]; TA100, -S9, 10 μg/plate",1.08
same,Number of revertants/plate,"[2]; TA100, -S9, 10 μg/plate",125.0±10.5 Rev/plate
same,MI: mutagenic index,"[2]; TA100, -S9, 50 μg/plate",0.88
same,Number of revertants/plate,"[2]; TA100, -S9, 50 μg/plate",101.0±12.5 Rev/plate
same,MI: mutagenic index,"[2]; TA100, -S9, 100 μg/plate",0.84
same,Number of revertants/plate,"[2]; TA100, -S9, 100 μg/plate",97.0±20.1 Rev/plate
same,MI: mutagenic index,"[2]; TA100, -S9, 200 μg/plate",0.95
same,Number of revertants/plate,"[2]; TA100, -S9, 200 μg/plate",109.7±7.8 Rev/plate
same,MI: mutagenic index,"[2]; TA100, -S9, 400 μg/plate",0.84
same,Number of revertants/plate,"[2]; TA100, -S9, 400 μg/plate",96.7±9.3 Rev/plate
same,percentage of remaining enzyme activity,[3],approximately 100%
same,percentage of remaining enzyme activity,[4],approximately 100%
same,IC50,[5],> 100 µM
